Laboratory results as given in ChEMBL document CHEMBL4321865, “Discovery of Novel Inhibitors of LpxC Displaying Potent in Vitro Activity against Gram-Negative Bacteria” (J Med Chem, 2020).
Values after ≈ are worked out from the molar mass of the structure shown.

Legend:
Escherichia coli [1] = assay: Antibacterial activity against Escherichia coli infected in cyclophosphamide-induced NMRI/ICR CD-1 mouse model of neutropenic thigh infection assessed as reduction in thigh bacterial load at 50 mg/kg, sc measured after 22 hrs relative to control; type: functional
Escherichia coli [2] = assay: Antibacterial activity against Escherichia coli infected in cyclophosphamide-induced NMRI/ICR CD-1 mouse model of neutropenic thigh infection assessed as reduction in thigh bacterial load at 150 mg/kg, sc measured after 22 hrs relative to control; type: functional
[3] = Cmax in NMRI/ICR CD-1 mouse at 50 mg/kg, sc by LC-MS/MS analysis; type: ADME, organism-based; parameters: dose 50 mg/kg, route subcutaneous; settings: in vivo
[4] = AUC (0 to 24 hrs) in NMRI/ICR CD-1 mouse at 150 mg/kg, sc by LC-MS/MS analysis; type: ADME, organism-based; parameters: dose 150 mg/kg, time < 24 hr, route subcutaneous; settings: in vivo
[5] = Free AUC (0 to 24 hrs) in NMRI/ICR CD-1 mouse at 150 mg/kg, sc by LC-MS/MS analysis; type: ADME, organism-based; settings: in vivo
[6] = Apparent clearance in NMRI/ICR CD-1 mouse at 150 mg/kg, sc by LC-MS/MS analysis; type: ADME, organism-based; settings: in vivo
Mus musculus [7] = assay: Apparent unbound clearance in NMRI/ICR CD-1 mouse at 150 mg/kg, sc by LC-MS/MS analysis; type: ADME, organism-based; settings: in vivo
[8] = Tmax in NMRI/ICR CD-1 mouse at 150 mg/kg, sc by LC-MS/MS analysis; type: ADME, organism-based; settings: in vivo
[9] = tested on: T1, UDP-3-O-acyl-N-acetylglucosamine deacetylase (Escherichia coli K-12), P0A725 [C125S]
T1 sequence (whole entry): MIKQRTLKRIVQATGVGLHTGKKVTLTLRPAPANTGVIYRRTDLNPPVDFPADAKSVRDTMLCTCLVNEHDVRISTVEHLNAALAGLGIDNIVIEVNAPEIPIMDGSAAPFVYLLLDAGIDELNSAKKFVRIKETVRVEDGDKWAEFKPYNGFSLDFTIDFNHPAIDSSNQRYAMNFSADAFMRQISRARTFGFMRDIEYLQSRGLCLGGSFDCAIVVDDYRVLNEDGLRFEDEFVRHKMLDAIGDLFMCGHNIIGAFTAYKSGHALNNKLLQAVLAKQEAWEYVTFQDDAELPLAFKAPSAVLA

[10] = tested on: T2, UDP-3-O-acyl-N-acetylglucosamine deacetylase (Pseudomonas aeruginosa (strain ATCC 15692 / PAO1 / 1C / PRS 101 / LMG12228)), P47205 [C40S]
T2 sequence (whole entry): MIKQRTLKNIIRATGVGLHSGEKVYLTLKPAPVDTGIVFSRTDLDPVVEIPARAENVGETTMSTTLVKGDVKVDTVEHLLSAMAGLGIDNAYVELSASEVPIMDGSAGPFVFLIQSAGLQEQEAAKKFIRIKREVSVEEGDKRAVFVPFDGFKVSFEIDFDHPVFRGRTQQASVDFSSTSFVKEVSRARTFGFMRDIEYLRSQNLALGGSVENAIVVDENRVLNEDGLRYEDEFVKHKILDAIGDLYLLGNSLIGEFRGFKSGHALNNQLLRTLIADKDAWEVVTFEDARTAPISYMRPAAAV

[11] = mouse, plasma, 1 µM
Description: Protein binding in mouse plasma assessed as fraction unbound at 1 uM by equilibrium dialysis method

physchem [12] = settings: DMSO, pH 7
Description: Solubility of the compound in DMSO at pH 7 incubated for 24 hrs by LC-UV method

physchem [13] = settings: DMSO, pH 9
Description: Solubility of the compound in DMSO at pH 9 incubated for 24 hrs by LC-UV method

physchem [14] = settings: DMSO, pH 4
Description: Solubility of the compound in DMSO at pH 4 incubated for 24 hrs by LC-UV method

Escherichia coli [15] = assay: microbe, parasite or virus in culture; settings: ATCC 25922
Description: Antibacterial activity against wild-type Escherichia coli ATCC 25922 by broth microdilution method

Klebsiella pneumoniae = assay: microbe, parasite or virus in culture; settings: T 6474
Description: Antibacterial activity against multi-drug resistant Klebsiella pneumoniae T 6474 by broth microdilution method

Pseudomonas aeruginosa [16] = assay: microbe, parasite or virus in culture; settings: ATCC 27853
Description: Antimicrobial activity against Pseudomonas aeruginosa ATCC 27853 by broth microdilution method

Pseudomonas aeruginosa [17] = assay: microbe, parasite or virus in culture; settings: PAO1
Description: Antimicrobial activity against wild-type Pseudomonas aeruginosa PAO1 by broth microdilution method

[18] = Apparent clearance in NMRI/ICR CD-1 mouse at 50 mg/kg, sc by LC-MS/MS analysis; type: ADME, organism-based; settings: in vivo
Mus musculus [19] = assay: Apparent unbound clearance in NMRI/ICR CD-1 mouse at 50 mg/kg, sc by LC-MS/MS analysis; type: ADME, organism-based; settings: in vivo
[20] = Tmax in NMRI/ICR CD-1 mouse at 50 mg/kg, sc by LC-MS/MS analysis; type: ADME, organism-based; settings: in vivo
[21] = mouse, in vivo, sc, 50 mg/kg
in vivo = settings: NMRI/ICR CD-1, mouse, sc, 50 mg/kg
Pseudomonas aeruginosa [22] = assay: Antimicrobial activity against Pseudomonas aeruginosa PA2616 harboring delta mexAB-OprM mutant by broth microdilution method; type: functional
[23] = Free AUC (0 to 24 hrs) in NMRI/ICR CD-1 mouse at 75 mg/kg, sc by LC-MS/MS analysis; type: ADME, organism-based; settings: in vivo
[24] = Apparent clearance in NMRI/ICR CD-1 mouse at 75 mg/kg, sc by LC-MS/MS analysis; type: ADME, organism-based; settings: in vivo
Mus musculus [25] = assay: Apparent unbound clearance in NMRI/ICR CD-1 mouse at 75 mg/kg, sc by LC-MS/MS analysis; type: ADME, organism-based; settings: in vivo
physchem [26] = settings: n-octanol/phosphate buffered saline, pH 7.4
Description: n-Octanol/phosphate buffered saline partition coefficient, log D of the compound at pH 7.4 by LC-UV method

Escherichia coli [27] = assay: Antibacterial activity against Escherichia coli infected in cyclophosphamide-induced NMRI/ICR CD-1 mouse model of neutropenic thigh infection assessed as reduction in thigh bacterial load at 450 mg/kg, sc administered as single dose measured after 22 hrs relative to control; type: functional
Escherichia coli [28] = assay: Antibacterial activity against Escherichia coli infected in cyclophosphamide-induced NMRI/ICR CD-1 mouse model of neutropenic thigh infection assessed as reduction in thigh bacterial load at 112.54 mg/kg, sc administered at 5.5 hrs interval for 4 times relative to control; type: functional

SMILES: C[C@@](CCN1Cc2cc(C#CC#CC3(N)CC3)cn2C1=O)(C(=O)NO)S(C)(=O)=O.Cl
- fold change (FC) (Escherichia coli [1]): 2.8
- fold change (FC) (Escherichia coli [2]): 1.8
- Cmax [3]: 8600 ng/mL
- AUC(0-t) at 24 h [4]: 14900 ng·h/mL
- fAUC [5]: 1160 ng·h/mL
- CL/F [6]: 55.9 mL/min/kg
- CLu/F (Mus musculus [7]): 716 mL/min/kg
- Tmax [8]: 30 min
- ΔTm [9]: 10 °C
- ΔTm [10]: 11.6 °C
- Fu [11]: 0.078%
- solubility at 24 h (physchem [12]): 418 µg/mL
- solubility at 24 h (physchem [13]): 536 µg/mL
- solubility at 24 h (physchem [14]): 571 µg/mL
- MIC (Escherichia coli [15]): 0.25 µg/mL
- MIC (Klebsiella pneumoniae): 0.25 µg/mL
- MIC (Pseudomonas aeruginosa [16]): 0.5 µg/mL
- MIC (Pseudomonas aeruginosa [17]): 0.5 µg/mL

SMILES: C[C@@](CCN1Cc2cc(C#CC#C[C@H]3C[C@@H]3CO)cn2C1=O)(C(=O)NO)S(C)(=O)=O
- fold change (FC) (Escherichia coli [1]): 1.8
- fold change (FC) (Escherichia coli [2]): 0.8
- CL/F [18]: 20.2 mL/min/kg
- CLu/F (Mus musculus [19]): 2300 mL/min/kg
- Cmax [3]: 22600 ng/mL
- Tmax [20]: 30 min
- ΔTm [9]: 11.2 °C
- ΔTm [10]: 13.2 °C
- Fu [11]: 0.009%
- fAUC [21]: 370 ng·h/mL
- AUC(0-t) at 24 h (in vivo): 41000 ng·h/mL
- solubility at 24 h (physchem [14]): 600 µg/mL (≈ 1380 µM)
- MIC (Escherichia coli [15]): 0.12 µg/mL (≈ 0.277 µM)
- MIC (Klebsiella pneumoniae): 0.25 µg/mL (≈ 0.577 µM)
- MIC (Pseudomonas aeruginosa [16]): 0.25 µg/mL (≈ 0.577 µM)
- MIC (Pseudomonas aeruginosa [17]): 0.5 µg/mL (≈ 1.15 µM)

SMILES: COc1ccc(-c2ccn(CC[C@](C)(C(=O)NO)S(C)(=O)=O)c(=O)c2)c(F)c1
- MIC (Pseudomonas aeruginosa [22]): ≤ 0.06 µg/mL
- Cmax [3]: 10300 ng/mL
- fAUC [23]: 3620 ng·h/mL
- CL/F [24]: 72 mL/min/kg
- CLu/F (Mus musculus [25]): 231 mL/min/kg
- Fu [11]: 0.31%
- AUC(0-t) at 24 h (in vivo): 11700 ng·h/mL
- logD (physchem [26]): 1.1
- solubility at 24 h (physchem [12]): 130 µg/mL (≈ 315 µM)
- solubility at 24 h (physchem [13]): 692 µg/mL (≈ 1680 µM)
- MIC (Escherichia coli [15]): ≤ 0.06 µg/mL
- MIC (Klebsiella pneumoniae): 0.25 µg/mL (≈ 0.606 µM)
- MIC (Pseudomonas aeruginosa [16]): 0.5 µg/mL (≈ 1.21 µM)
- MIC (Pseudomonas aeruginosa [17]): 0.25 to 0.5 µg/mL (≈ 0.606 to 1.21 µM)

SMILES: C[C@@](CCN1Cc2cc(C#Cc3ccc([C@H](O)CO)cc3)cn2C1=O)(C(=O)NO)S(C)(=O)=O
- fold change (FC) (Escherichia coli [1]): 2.4
- fold change (FC) (Escherichia coli [2]): 0.4
- CL/F [18]: 10.8 mL/min/kg
- CLu/F (Mus musculus [19]): 680 mL/min/kg
- Cmax [3]: 41300 ng/mL
- Tmax [20]: 30 min
- ΔTm [9]: 11.1 °C
- ΔTm [10]: 12.7 °C
- Fu [11]: 0.016%
- fAUC [21]: 1230 ng·h/mL
- AUC(0-t) at 24 h (in vivo): 76500 ng·h/mL
- logD (physchem [26]): 0.5
- solubility at 24 h (physchem [12]): 605 µg/mL (≈ 1270 µM)
- solubility at 24 h (physchem [13]): 660 µg/mL (≈ 1390 µM)
- solubility at 24 h (physchem [14]): 167 µg/mL (≈ 351 µM)
- MIC (Escherichia coli [15]): 0.5 µg/mL (≈ 1.05 µM)
- MIC (Klebsiella pneumoniae): 1 µg/mL (≈ 2.1 µM)
- MIC (Pseudomonas aeruginosa [16]): 1 µg/mL (≈ 2.1 µM)
- MIC (Pseudomonas aeruginosa [17]): 1 µg/mL (≈ 2.1 µM)

SMILES: C[C@@](CCN1Cc2cc(C#CC#CC3(CO)CC3)cn2C1=O)(C(=O)NO)S(C)(=O)=O
- fold change (FC) (Escherichia coli [1]): 2.1
- fold change (FC) (Escherichia coli [2]): 0.8
- CL/F [18]: 25.1 mL/min/kg
- CLu/F (Mus musculus [19]): 295 mL/min/kg
- Cmax [3]: 20200 ng/mL
- Tmax [20]: 30 min
- fold change (FC) (Escherichia coli [27]): 1
- fold change (FC) (Escherichia coli [28]): 1.5
- ΔTm [9]: 9.9 °C
- ΔTm [10]: 12.5 °C
- Fu [11]: 0.085%
- fAUC [21]: 2810 ng·h/mL
- AUC(0-t) at 24 h (in vivo): 33000 ng·h/mL
- MIC (Escherichia coli [15]): 0.25 µg/mL (≈ 0.577 µM)
- MIC (Klebsiella pneumoniae): 1 µg/mL (≈ 2.31 µM)
- MIC (Pseudomonas aeruginosa [16]): 0.5 µg/mL (≈ 1.15 µM)
- MIC (Pseudomonas aeruginosa [17]): 1 µg/mL (≈ 2.31 µM)
